Structures can show the parent of a compound that is named as a salt. Where two headings read alike, the source gives them in different places.
Key:
Calu-3 cells [1] = experiment: cells; conditions: Homo sapiens; for Emax: Calu-3, 48 h, read-out: Calu-3 cell count Sinf Average
SARS-CoV-2 [2] = experiment: microbe, parasite or virus in culture; assay type: cell-based; conditions: for Emax: Severe acute respiratory syndrome coronavirus 2, HeLa-ACE2, 24 h, read-out: HeLa-ACE2 CoV-2 Sinf Average
HeLa-ACE2 cells [3] = experiment: cells; conditions: Homo sapiens; for Emax: HeLa-ACE2, 24 h, read-out: HeLa-ACE2 cell count Sinf Average
in vitro = conditions: human
[4] = cited from earlier work
[5] = Uninfected HeLa-ACE2 24 h live/dead cytotoxicity counter screen; assay type: cell-based, human; conditions: human, uninfected HeLa-ACE2 cells
SARS-CoV-2 [6] = experiment: microbe, parasite or virus in culture; assay type: cell-based; conditions: for Emax: Severe acute respiratory syndrome coronavirus 2, Calu-3, 48 h, read-out: Calu-3 CoV-2 Sinf Average
[7] = Uninfected Calu-3 48 h Cell-Titer Glo cytotoxicity counter screen; conditions: human, uninfected Calu-3 cells
Calu-3 cells [8] = experiment: as above
HeLa-ACE2 cells [9] = experiment: Uninfected HeLa-ACE2 24 h live/dead cytotoxicity counter screen; assay type: cell-based, human
[10] = HEK293T 72 h CellTiter-Glo cytotoxicity; conditions: human, HEK293T cells
HEK293T = HEK293T 72 h CellTiter-Glo cytotoxicity; conditions: 72 h
HeLa-ACE2 cells [11] = experiment: cells; assay type: cell-based, human; conditions: Homo sapiens, HeLa-ACE2; read-out: HeLa-ACE2 TOA cell count EC50 GeoMean
[12] = HepG2 72 h CellTiter-Glo cytotoxicity; conditions: human, HepG2 cells
HepG2 = HepG2 72 h CellTiter-Glo cytotoxicity; conditions: 72 h
SARS-CoV-2 [13] = experiment: microbe, parasite or virus in culture; assay type: cell-based; conditions: for Emax: Severe acute respiratory syndrome coronavirus 2, HeLa-ACE2, 10 h, curve plateau at infinite concentration, read-out: HeLa-ACE2 TOA CoV-2 Sinf Average; for EC50: read-out: HeLa-ACE2 TOA CoV-2 EC50 GeoMean
SARS-CoV-2 [14] = assay type: cell-based
HeLa-ACE2 cells [15] = experiment: Total cell count in the HeLa-ACE2 TOA assay; assay type: cell-based; conditions: Homo sapiens
Source text: Supplement 41467_2021_23328_MOESM3_ESM.xlsx, sheet "Table S1" | column: HeLa-ACE2 TOA cell count

[16] = Calu-3, read-out: Calu-3 cell count EC50 GeoMean, unrounded geometric mean
[17] = Severe acute respiratory syndrome coronavirus 2, HeLa-ACE2, reconfirmed hits, read-out: HeLa-ACE2 SARS-CoV-2 EC50
[18] = Severe acute respiratory syndrome coronavirus 2, HeLa-ACE2, unrounded geometric mean, read-out: HeLa-ACE2 CoV-2 EC50 GeoMean
[19] = HeLa-ACE2, read-out: HeLa-ACE2 cell count EC50 GeoMean, unrounded geometric mean
[20] = Calu-3 Uninf. cells CC50 (µM), reconfirmed hits
[21] = Calu-3 uninfected cytotoxicity CC50 GeoMean, unrounded geometric mean
[22] = read-out: Approx. Cmax, human, oral, ref [36],[37],[42],[43] as in column Refs.
[23] = reconfirmed hits, read-out: HeLa-ACE2 Uninf. cells CC50
[24] = unrounded geometric mean, read-out: HeLa-ACE2 uninfected cytotoxicity CC50 GeoMean
[25] = curve-fit effect at infinite concentration, average
[26] = Severe acute respiratory syndrome coronavirus 2, Calu-3, reconfirmed hits, read-out: Calu-3 SARS-CoV-2 EC50
[27] = Severe acute respiratory syndrome coronavirus 2, Calu-3, unrounded geometric mean, read-out: Calu-3 CoV-2 EC50 GeoMean
[28] = Calu-3, read-out: Calu-3 cell count EC50 GeoMean, detail block
[29] = Calu-3 uninfected cytotoxicity CC50 GeoMean, detail block
[30] = curve plateau at infinite concentration
[31] = HeLa-ACE2, read-out: HeLa-ACE2 cell count EC50 GeoMean, detail block
[32] = detail block, read-out: HeLa-ACE2 uninfected cytotoxicity CC50 GeoMean
[33] = Severe acute respiratory syndrome coronavirus 2, Calu-3, detail block, read-out: Calu-3 CoV-2 EC50 GeoMean
[34] = Severe acute respiratory syndrome coronavirus 2, HeLa-ACE2, detail block
[35] = Severe acute respiratory syndrome coronavirus 2, HeLa-ACE2, detail block, read-out: HeLa-ACE2 CoV-2 EC50 GeoMean
[36] = selectivity index, uninfected HeLa-ACE2 CC50 / SARS-CoV-2 EC50
[37] = selectivity index, uninfected Calu-3 CC50 / Calu-3 SARS-CoV-2 EC50

| Structure (SMILES) | Emax (Calu-3 cells [1]) | EC50 (SARS-CoV-2 [2]; [17]) | Approx. t1/2 ([4]; human, ref [33]-[49]) | CC50 at 24 h [5, 23] | EC50 (SARS-CoV-2 [6]; [26]) | Emax (HeLa-ACE2 cells [3]) | EC50 (Calu-3 cells [1]; [28]) | CC50 at 48 h [7, 29] | Calu-3 uninfected cytotoxicity Sinf Average (Calu-3 cells [8]; [30]) | CC50 at 72 h [10] | HEK293T 72-hour cytotoxicty Sinf Average (HEK293T) | EC50 (HeLa-ACE2 cells [11]) | Emax (SARS-CoV-2 [2]; [30]) | EC50 (HeLa-ACE2 cells [3]; [31]) | CC50 at 72 h [12] | HepG2 72-hour cytotoxicity Sinf Average (HepG2) | CC50 at 24 h [5, 32] | HeLa-ACE2 uninfected cytotoxicity Sinf Average (HeLa-ACE2 cells [9]; [30]) | EC50 (SARS-CoV-2 [6]; [33]) | Emax (SARS-CoV-2 [13]) | also measured |
| --- | --- | --- | --- | --- | --- | --- | --- | --- | --- | --- | --- | --- | --- | --- | --- | --- | --- | --- | --- | --- | --- |
| C=Cc1cc(C(=O)Nc2ccc(C(=N)N)cc2)c(-c2ccc(C(=O)NCC3CC3)nc2C(=O)O)cc1OC [Avoralstat] | 91% | > 9.6 µM | 14 h | > 40 µM | 0.387 µM | – | – | – | – | – | – | – | – | – | – | – | – | – | – | – | EC50 (Calu-3 cells [1]; [16]): 0.57 µM; EC50 (SARS-CoV-2 [2]; [18]): > 9.59 µM; EC50 (HeLa-ACE2 cells [3]; [19]): > 9.59 µM; CC50 (in vitro; [20]): > 30 µM; CC50 (in vitro; [21]): > 29.9 µM; Cmax [4, 22]: 364 nM; CC50 at 24 h [5, 24]: > 39.8 µM; Emax (SARS-CoV-2 [6]; [25]): 88%; EC50 (SARS-CoV-2 [6]; [27]): 0.387 µM |
| COC(=O)[C@]12CCC(C)(C)C[C@H]1[C@H]1C(=O)C=C3[C@@]4(C)C=C(C#N)C(=O)C(C)(C)[C@@H]4CC[C@@]3(C)[C@]1(C)CC2 [Bardoxolone methyl] | 41% | 0.541 µM | 39 h | 3.1 µM | 0.079 µM | 101% | – | – | – | – | – | – | – | – | – | – | – | – | – | – | EC50 (Calu-3 cells [1]; [16]): 0.116 µM; CC50 at 48 h [7, 20]: 3.06 µM; CC50 at 48 h [7, 21]: 3.06 µM; Calu-3 uninfected cytotoxicity Sinf Average (Calu-3 cells [8]; [25]): -97%; Emax (SARS-CoV-2 [2]; [25]): 100%; EC50 (SARS-CoV-2 [2]; [18]): 0.541 µM; EC50 (HeLa-ACE2 cells [3]; [19]): 1.26 µM; Cmax [4, 22]: 50 nM; CC50 at 24 h ([5]; uninfected cells, Fig. 2b group, read-out: HeLa-ACE2 CC50): ≤ 3 µM; CC50 at 24 h [5, 24]: 3.1 µM; HeLa-ACE2 uninfected cytotoxicity Sinf Average (HeLa-ACE2 cells [9]; [25]): -101%; Emax (SARS-CoV-2 [6]; [25]): 96%; EC50 (SARS-CoV-2 [6]; [27]): 0.0794 µM |
| COc1ccc2cc1Oc1ccc(cc1)C[C@H]1c3cc(c(OC)cc3CCN1C)Oc1c(OC)c(OC)cc3c1[C@H](C2)N(C)CC3 [Hanfangchin A] | – | – | – | – | – | 100% | > 9.98 µM | 15.2 µM | -100% | 3.6 µM | -101% | > 9.59 µM | 100% | > 9.21 µM | 2.28 µM | -105% | > 18.9 µM | -99% | > 9.98 µM | 100% | HeLa-ACE2 SI (SARS-CoV-2 [2]): > 16.08; EC50 (SARS-CoV-2 [2]; Severe acute respiratory syndrome coronavirus 2, HeLa-ACE2, read-out: HeLa-ACE2 CoV-2 EC50 GeoMean, detail block): 1.18 µM; Calu-3 SI (SARS-CoV-2 [6]): 1.53; Emax (SARS-CoV-2 [6]): 87%; TOA:HeLa-ACE2 EC50 Ratio (SARS-CoV-2 [13]): 7.993; EC50 (SARS-CoV-2 [13]; [34]): > 9.41 µM |
| COC(=O)C1=C(C)NC(C)=C(C(=O)OCCN2CCN(C(c3ccccc3)c3ccccc3)CC2)C1c1cccc([N+](=O)[O-])c1 (stereo not shown) [Manidipine] | – | 6.89 µM | 3 h | > 17.1 µM | 5.48 µM | – | – | – | – | – | – | – | – | – | – | – | – | – | – | – | Synergy score with remdesivir (δ) (SARS-CoV-2 [14]; HeLa-ACE2): −4.73; CC50 at 48 h (in vitro; Calu-3 Uninf. cells CC50 (µM)): > 30 µM; Cmax ([4]; human, in vivo, po): 10 nM |
| CC(C)(C)Cn1c(N)nc2ccc(-c3[nH]c(C(C)(C)C)nc3-c3ccc(F)cc3)nc21 [Ralimetinib mesylate/LY2228820, Ralimetinib mesylate] | 95% | 1.87 µM | 190 h | 27.4 µM | 3.83 µM | -60% | – | – | -97% | 20.3 µM | -100% | – | 100% | – | 19.8 µM | -100% | – | -99% | – | 100% | HeLa-ACE2 synergy score with remdesivi [δ] (SARS-CoV-2 [14]; combination with remdesivir, synergy score δ): -0.846; EC50 (Calu-3 cells [1]; Calu-3, read-out: Calu-3 cell count EC50 GeoMean): 5.55 µM; CC50 at 48 h [7, 20]: 13.8 µM; CC50 at 48 h ([7]; Calu-3 uninfected cytotoxicity CC50 GeoMean): 13.8 µM; Emax (HeLa-ACE2 cells [15]; HeLa-ACE2, 10 h, curve plateau at infinite concentration, read-out: HeLa-ACE2 TOA cell count Sinf Average): 55%; EC50 (HeLa-ACE2 cells [15]; HeLa-ACE2, read-out: HeLa-ACE2 TOA cell count EC50 GeoMean): > 4.43 µM; EC50 (HeLa-ACE2 cells [3]; HeLa-ACE2, read-out: HeLa-ACE2 cell count EC50 GeoMean): > 6.87 µM; Cmax ([4]; read-out: Approx. Cmax, human oral, ref [33]-[49]): 5000 nM; CC50 at 24 h ([5]; read-out: HeLa-ACE2 uninfected cytotoxicity CC50 GeoMean): 27.4 µM; Emax (SARS-CoV-2 [6]; [30]): 100%; EC50 (SARS-CoV-2 [13]; Severe acute respiratory syndrome coronavirus 2, HeLa-ACE2): 0.787 µM |
| COC(=O)[C@H]1[C@H]2C[C@@H]3c4[nH]c5cc(OC)ccc5c4CCN3C[C@H]2C[C@@H](OC(=O)c2cc(OC)c(OC)c(OC)c2)[C@@H]1OC [Reserpine] | 100% | – | – | – | – | – | > 9.98 µM | > 28.5 µM | -100% | 11.7 µM | -100% | > 9.61 µM | 100% | > 9.6 µM | 33 µM | -100% | > 36.4 µM | -100% | > 9.98 µM | 100% | EC50 (SARS-CoV-2 [2]; [35]): > 5.51 µM; HeLa-ACE2 SI (SARS-CoV-2 [2]; [36]): > 6.60; Emax (SARS-CoV-2 [6]; [30]): 100%; Calu-3 SI (SARS-CoV-2 [6]; [37]): 2.85; TOA:HeLa-ACE2 EC50 Ratio (SARS-CoV-2 [13]): 0.542; EC50 (SARS-CoV-2 [13]; [34]): 2.99 µM |
| CC(CN(C)C)CN1c2ccccc2CCc2ccccc21 (stereo not shown) [Trimipramine maleate] | – | – | – | – | – | – | > 9.98 µM | > 29 µM | -100% | 12.8 µM | -102% | > 9.59 µM | 99% | > 9.59 µM | 18.8 µM | -100% | 21.3 µM | -100% | > 9.98 µM | 100% | EC50 (SARS-CoV-2 [2]; [35]): 2.11 µM; HeLa-ACE2 SI (SARS-CoV-2 [2]; [36]): 10.11; Emax (SARS-CoV-2 [6]; [30]): 100%; Calu-3 SI (SARS-CoV-2 [6]; [37]): 2.90; TOA:HeLa-ACE2 EC50 Ratio (SARS-CoV-2 [13]): 2.576; EC50 (SARS-CoV-2 [13]; [34]): 5.42 µM |
| OCCN1CCN(CC/C=C2/c3ccccc3Sc3ccc(Cl)cc32)CC1 [Zuclopenthixol] | – | – | – | – | – | 100% | > 9.98 µM | 9.6 µM | -100% | 18.6 µM | -100% | > 9.59 µM | 100% | > 9.59 µM | 12.5 µM | -100% | > 16.8 µM | -100% | > 9.05 µM | 99% | EC50 (SARS-CoV-2 [2]; [35]): 2.08 µM; HeLa-ACE2 SI (SARS-CoV-2 [2]; [36]): > 8.08; Emax (SARS-CoV-2 [6]; [30]): 100%; Calu-3 SI (SARS-CoV-2 [6]; [37]): 1.06; TOA:HeLa-ACE2 EC50 Ratio (SARS-CoV-2 [13]): 2.929; EC50 (SARS-CoV-2 [13]; [34]): 6.1 µM |
